The test system of assay [1] is human induced pluripotent stem cells. Nature of the assay: Etoposide sensitivity assay (ESA), Annexin V/PI flow cytometry. Particulars: for EC50: Homo sapiens, 24 h. The assay is classed as cell-based. As to the method: An assay for assessing pluripotency or for releasing a stem cell population for clinical diagnostic or therapeutic use can include obtaining a series of cell samples from the population being assessed. Each of these samples can be contacted with an increasing concentration of one or more DNA damaging agent(s). Any appropriate length of time can be used for the incubation period. For example, the cells can be incubated as 37° C. for between about 30 minutes and about 48 hours (e.g., between about 30 minutes and about 36 hours, between about 30 minutes and about 24 hours, or between about 1 hour and about 24 hours). After this contacting step, the cells can be evaluated using, for example, flow cytometry to determine how susceptible the cells are to apoptosis. In some cases, flow cytometry can be carried out as follows. Briefly, pluripotent stem cells can be seeded in plates (e.g., 24 well plates) and treated with etoposide (Sigma-Aldrich) or DMSO for a period of time (e.g., about 24 hours) at, for example, about 50% confluence. Media and cells can be stained with Annexin V FITC/PI and analyzed via flow cytometry (e.g., via a Gallios (Beckman Coulter) flow cytometer). Data analysis can be performed using Kaluza (Beckman Coulter) software and normalized by dividing the triplicate means (viable non-staining cells) by the corresponding DMSO control. Human pluripotent stem cell clones were assessed for etoposide sensitivity as follows. Mechanically processed hiPSC's were seeded onto a 24-well plate (1×60 mm dish: 1×24-well plate), maintained for 3-5 days, and subsequently treated with etoposide (1, 10, 50, 100, 250, 500, and 1,000 nM, all performed in triplicate wells) or vehicle control (DMSO) for 24 hours. Conditioned media was collected into appropriately labeled 12×75 mm flow tubes, and 200 μL of TryPLE was added to each well. Following a brief incubation at 37° C. (5-10 minutes), 1 mL of pre-warmed (37° C.) FAC's buffer (4 mM EDTA, 0.5% FBS, 1×DPBS pH 7.4 w/o Ca^2+, Mg^2+) was added to each well. The total well contents were transferred to their corresponding conditioned media tubes, and all tubes were spun down at 400×G for 5 minutes. Tubes were washed 1× with ice-cold Annexin Binding Buffer (ABB, 10 mM HEPES, 2.5 mM CaCl2, 140 mM NaCl, pH 7.4) and stained with Annexin-FITC (BD 556420, 5 μL in 100 μL total ABB per tube) for 30 minutes on ice while protected from light. All tubes were washed 1× in ABB, and the resulting cell pellets were resuspended in 400 μL of ABB supplemented with 1 μL of 1 mg/mL propidium iodide (Sigma-Aldrich, P4864). Samples were immediately assayed by flow cytometry (Gallios, Beckman Coulter), and data were subsequently analyzed for percent viability using Kaluza software (Beckman Coulter).
Background: A flow cytometer gives signals particle by particle.

Assay [2] concerns cardiomyocytes differentiated from hiPSC's. Nature of the assay: Etoposide sensitivity assay during cardiomyocyte differentiation of hiPSC's. The class given is cell-based, human. Particulars: mature, beating cardiomyocytes (Day 9).

`COc1cc([C@@H]2c3cc4c(cc3[C@@H](O[C@@H]3O[C@@H]5CO[C@@H](C)O[C@H]5[C@H](O)[C@H]3O)[C@H]3COC(=O)[C@H]23)OCO4)cc(OC)c1O` [etoposide]: the half-maximal effective concentration (EC50) (commonly the midpoint of the concentration-response curve) in assay [1] (cleaned (C) hiPSC cultures after removal of poor quality clones/cells, 24 hours) is under 300 nM; in assay [1] (poor quality clones/cells from unclean (UC) hiPSC cultures, feeder free), over 300 nM. In addition, the etoposide sensitivity entry was “significant decrease in etoposide sensitivity” in assay [1] (Sendai virus derived hiPSC clones compared to lentivirus reprogrammed clones, 126 clones); “reduced or negligible etoposide sensitivity” in assay [1] (hiPSC clones of poor quality and cellular differentiation, feeder free conditions). The sensitivity to etoposide entry in assay [1] (hiPSC lines RT 4.1 and RT 6.21 compared with other hiPSC lines, 24 hours) was “greatest sensitivity”; in assay [2], “near complete lack of sensitivity”.

For the origin of these results see US20160109432A1, “METHODS AND MATERIALS FOR ASSESSING PLURIPOTENCY OF STEM CELL POPULATIONS” (Mayo Foundation for Medical Education and Research, priority 2014, published 2016).
